Here are results for two compounds from US10905738B2, “Synthetic peptides, prodrugs, pharmaceutical compositions and uses” (Biozeus Desenvolvimento De Produtos Biofarmacêuticos, priority 2018, dated 2021).

Where a SMILES comes first, the peptide text is derived from it.

Broadly, the pEC50 is −log10 of the EC50, conventionally taken in molar units.

For this experiment, the system named is smooth muscle of pulmonary arteries. The experiment can be described thus: relaxation of pulmonary arteries contracted with phenylephrine ex vivo. The settings on record: n = 9; for pEC50: pulmonary arteries contracted with phenylephrine, peptides 1 nM-10 μM, mean±SEM; for Effectiveness (Emax) (%): relaxation percentage related to maximum phenylephrine contraction. More on the design: species or system male Wistar rats. From the text: The ex vivo model of pulmonary artery smooth muscle contraction with phenylephrine is very useful to screen candidate compounds for lung diseases that demand vasodilating effects (ALENCAR, A. K., PEREIRA, S. L., MONTAGNOLI, T. L., MAIA, R. C., KUMMERLE, A. E., LANDGRAF, S. S., CARUSO-NEVES, C., FERRAZ, E. B., TESCH, R., NASCIMENTO, J. H., DE SANT'ANNA, C. M., FRAGA, C. A., BARREIRO, E. J., SUDO, R. T., ZAPATA-SUDO, G. Beneficial effects of a novel agonist of the adenosine A2A receptor on monocrotaline-induced pulmonary hypertension in rats. Br J Pharmacol, 169: 953-62. 2013).
Rats were anesthetized with midazolam and ketamine (2 mg/kg and 100 mg/kg, respectively) via intraperitoneal administration. After infusion of a lethal dose of sodium thiopental via intraperitoneal administration (50 mg/kg), the trunk of the pulmonary artery was carefully removed via sternotomy. The pulmonary artery was carefully dissected and the connective tissue removed. The arteries were connected to a force transductor, positioned in vertical chambers filled with Krebs solution, oxygenated and kept at 37° C.
After a stabilization period of 2 hours at a tension of 1.5 grams, the arteries were exposed to increasing doses of phenylephrine (1 nM-10 μM) in order to obtain maximum smooth muscle contraction and then exposed to increasing doses of selected peptides in the concentrations of 1 nM-10 μM each (n=9). The tension generated by the pulmonary artery was evaluated at intervals of 5 minutes for each dose (ALENCAR, A. K., PEREIRA, S. L., MONTAGNOLI, T. L., MAIA, R. C., KUMMERLE, A. E., LANDGRAF, S. S., CARUSO-NEVES, C., FERRAZ, E. B., TESCH, R., NASCIMENTO, J. H., DE SANT'ANNA, C. M., FRAGA, C. A., BARREIRO, E. J., SUDO, R. T., ZAPATA-SUDO, G. Beneficial effects of a novel agonist of the adenosine A2A receptor on monocrotaline-induced pulmonary hypertension in rats. Br J Pharmacol 169: 953-62. 2013; ALENCAR, A. K., PEREIRA, S. L., DA SILVA, F. E., MENDES, L. V., CUNHA VDO, M., LIMA, L. M., MONTAGNOLI, T. L., CARUSO-NEVES, C., FERRAZ, E. B., TESCH, R., NASCIMENTO, J. H., SANT'ANNA, C. M., FRAGA, C. A., BARREIRO, E. J., SUDO, R. T., ZAPATA-SUDO, G. N-acylhydrazone derivative ameliorates monocrotaline-induced pulmonary hypertension through the modulation of adenosine AA2R activity. International Journal of Cardiology, 173(2): 154-62. 2014).
Potency values are shown as the negative logarithm of the concentration that reduced the voltage to 50% of the maximum phenylephrine-induced contraction (pEC50), and they are expressed as mean±SEM. The maximum contraction achieved in a given artery was considered to be 100% of contraction, and the effectiveness (Emax) was expressed as the relaxation percentage related to this maximum value. The results were calculated from at least 3 independent tests using the sigmoid non-linear regression equation, and the statistical analysis of the concentration curve was done by performing a nonlinear fit of the logarithmic of the agonist versus response. All the above calculations were performed on the software Graph Prism 5.0 (GraphPad Software, La Jolla, Calif., USA). Tension analysis was performed on the software LabChart7 (AD Instruments, Sydney, Australia). As a cutoff to determine biological significance, we considered pulmonary artery relaxation values above 30% as biologically relevant, considered those as active and then calculated the Emax values (SUN, C. K., LIN, Y. C., YUEN, C. M., CHUA, S., CHANG, L. T., SHEU, J. J., LEE, F. Y., FU, M., LEU, S., YIP, H. K. Enhanced protection against pulmonary hypertension with sildenafil and endothelial progenitor cell in rats. International journal of cardiology, 162(1): 45-58. 2012; ALENCAR, A. K., PEREIRA, S. L., DA SILVA, F. E., MENDES, L. V., CUNHA VDO, M., LIMA, L. M., MONTAGNOLI, T. L., CARUSO-NEVES, C., FERRAZ, E. B., TESCH, R., NASCIMENTO, J. H., SANT'ANNA, C. M., FRAGA, C. […]

As to `CC[C@H](C)[C@H](NC(=O)[C@H](Cc1c[nH]c2ccccc12)NC(=O)[C@H](Cc1ccccc1)NC(C)=O)C(=O)N[C@@H](C)C(=O)N[C@@H](Cc1c[nH]c2ccccc12)C(=O)N[C@@H](Cc1ccc(O)cc1)C(=O)N[C@@H](CCCCN)C(=O)N[C@@H](CC(C)C)C(=O)N[C@@H](C)C(N)=O` [SEQ ID NO: 19, Ac-Phe-Trp-Ile-Ala-Trp-Tyr-Lys-Leu-Ala-NH2] (Ac-FWIAWYKLA-NH2), the pEC50 turned out to be 6.9 ± 6.55 and the “Effectiveness (Emax) (%)” value was 24% ± 9.71.

Turning to `CC[C@H](C)[C@H](NC(C)=O)C(=O)N[C@@H](C)C(=O)N[C@@H](Cc1c[nH]c2ccccc12)C(=O)N[C@@H](Cc1ccc(O)cc1)C(=O)N[C@@H](CCCCN)C(N)=O` [SEQ ID NO: 24, Ac-Ile-Ala-Trp-Tyr-Lys-NH2] (Ac-IAWYK-NH2), the pEC50 is given as 4.4 ± 6.4 and the “Effectiveness (Emax) (%)” value was 5% ± 5.96.
